Test results reported in US20220226369A1, “ETHANOL HARDENER AND USE THEREOF” (priority 2019, published 2022).

Legend:
[1] = Viscosity test by capillary viscometer; assay type: physicochemical; conditions: 20° C.
Procedure: The viscosity of Examples 1, 5 and 7 and ethanol was measured by a capillary viscometer at an ambient temperature of 20° C. The capillary diameter was 0.5-0.6 mm and the viscometer constant was 0.005085 mm^2/s^2. The time difference of liquid passing through the capillary was recorded.
Viscosity=time difference×viscometer constant

rabbit ear vein = assay: Embolic effect in rabbit ear vein; assay type: in vivo, rabbits; conditions: 0.1 mL injected, after one-month recovery, India ink
Procedure: Sixty healthy male rabbits with body weight of 2.5±0.2 kg were selected and divided into 6 groups of 10. The rabbits were anesthetized with a 3% sodium pentobarbital solution by intraperitoneal injection at 0.8 mL/kg. An anticoagulated and disinfected PE-8 catheter (0.20 mm×0.36 mm) was inserted into the distal end of the ear vein, until the end of the catheter reached the midpoint of the ear vein. The in-vitro end of the catheter was connected with a 1-mL syringe through a cannula.
0.1 mL of each of the sclerosing agents of various embodiments with different components was injected at a constant speed through the PE-8 catheter. After 30 seconds, the catheter was slowly and gently withdrawn, and a cotton pad was used for hemostasis. Both left and right ears of the animals were treated with the same procedures. The animals after sclerosing treatment were accommodate in individual cages. After a one-month recovery period, after visual inspection, a normal saline containing India ink was slowly injected at the distal end of the ear vein, so as to observe and record whether the blood vessels were completely embolized. The embolization ratio in each group was recorded (Table 2).

Time difference ([1]; capillary diameter 0.5-0.6 mm): 245 s
Viscosity ([1]; viscometer constant 0.005085 mm^2/s^2): 1.25 mm^2/s
SMILES: CCO [Ethanol, ethanol]
Ratio of completely embolized vessels (rabbit ear vein): 60% (12/20)
